This is an account of results in patent US20230286983A1 (4E Therapeutics, Inc., priority 2020, published 2023).

Molecules are shown by their SMILES.

In series [1] the target is MNK1 (Homo sapiens, UniProt Q9BUB5). In words: MNK1 substrate phosphorylation assay. The format is biochemical. The following applies: recombinant human kinase.
Series [2] deals with IL-6 evoked grimace. The experiment in a line: IL-6 evoked grimace test. The format is in vivo, ICR mice. The protocol: Institute for Cancer Research (ICR) mice were used in these experiments. Mice were bred in house at University of Texas at Dallas and used at between 12 and 24 weeks of age. Mice were habituated to plexiglass boxes of approximately 4×6 inches in size with openable tops. Habituation took place over 2 days with animals exposed to the boxes for at least 30 min. A blinded observer scored baseline grimacing using the method previously described by Mogil and colleagues (Langford, et al., Coding of facial expressions of pain in the laboratory mouse. Nat Methods (2010) 7:447-449.). On test day, mice were given test compounds 1 hr prior to injection of interleukin 6 (human recombinant IL-6, R&D Systems) which was given at a dose of 0.1 ng in saline via an intraplantar injection as described previously (Moy et al. The MNK-eIF4E Signaling Axis Contributes to Injury-Induced Nociceptive Plasticity and the Development of Chronic Pain. J Neurosci (2017) 37:7481-7499.). Test compounds were given orally (PO) via a flexible oral gavage canula built for mice. 4ET-01-021 (10.0, 3.0, and 1.0 mg/kg) and 4ET-03-052B (10.0 mg/kg) are efficacious in the IL-6 evoked grimace test in mice. FIG. 5 depicts a comparison of effect size in the IL-6 evoked grimace test. Effect sizes were calculated per mouse by subtracting the baseline grimace score from the sum of the grimace scores for 1 and 3 hr time points. […] FIG. 6 is a graph showing the effect size in the IL-6 evoked grimace test vs. dose of 4ET-01-021.

Series [3] deals with MDCK-MDR1. The experiment in a line: MDCK-MDR1 permeability (blood brain barrier permeability). The format is in vitro ADME, Canine. The following applies: 5 μM.
For series [4], the target named is MNK2 (Homo sapiens, UniProt Q9HBH9). In words: MNK2 substrate phosphorylation assay. The format is biochemical. The following applies: recombinant human kinase.
For series [5], the system named is eIF4E phosphorylation at Serine 209 in the human embryonic kidney (HEK) 293 cell line. In words: eIF4E phosphorylation in HEK 293 cells (fluorescent plate reader). The format is cell-based. The following applies: eIF4E phosphorylation at Serine 209, 2 hours exposure. The method, boiled down: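 HEK-293 cells were treated with compound for 2 h, then methanol-fixed and Triton-permeabilized. Ser209 phospho-eIF4E was stained with primary antibody (1:2000, overnight) and an Alexa Fluor 488 secondary. Fluorescence was normalized to DAPI, and IC50 was fitted from concentration-response data.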

Series [6] in a line: Liver microsome stability, mouse. The format is in vitro ADME. The following applies: for half-life: mouse, liver microsomes. In general terms: Liver microsomes are a subcellular fraction often used to study metabolism.
The subject of series [7] is eIF4E phosphorylation at Serine 209 in Karpas 299. In words: eIF4E phosphorylation in Karpas 299 cells (sandwich ELISA). The format is cell-based. The following applies: Homo sapiens, read-out: Karpas 299 cell IC50. The protocol:
The ability of MNK inhibitors described herein to inhibit eIF4E phosphorylation at Serine 209 in Karpas 299, Human Non-Hodgkin's Ki-positive Large Cell Lymphoma cell line was tested by sandwich enzyme linked immune-absorbance assay.
In general terms: ELISA stands for enzyme-linked immunosorbent assay.

The nature of series [8]: Liver microsome stability, human. The format is in vitro ADME. The following applies: liver microsomes; for half-life: read-out: Human liver microsomes t1/2.
Series [9] relates to P-gp (human MDR1, ABCB1). In words: MDCK-MDR1 permeability (blood brain barrier permeability). The format is in vitro ADME, Canine. The following applies: dog; for efflux ratio at 5 μM: MDCK-MDR1, 5 μM, read-out: Efflux ratio (ratio B-A/A-B); for Papp A→B at 5 μM: MDCK-MDR1, Apical to basolateral transport; for Papp A→B at 5 μM / Papp B→A at 5 μM: average of two experiments; for Papp B→A at 5 μM: MDCK-MDR1, Basolateral to apical transport.

Series [10] has as its system eIF4E phosphorylation at Serine 209 in the human osteosarcoma (U2OS) cell line. In words: eIF4E phosphorylation in U2OS cells (fluorescent plate reader). The format is cell-based. The following applies: Homo sapiens, U2OS; eIF4E phosphorylation at Serine 209, 2 hours exposure. The protocol: The ability of MNK inhibitors described herein to inhibit eIF4E phosphorylation at Serine 209 in the human osteosarcoma (U2OS) cell line was tested by exposing the cells to compound for 2 hours and then measuring eIF4E phosphorylation with a phosphorylation-specific antibody in a fluorescent plate reader.

Series [11] deals with T1, protein kinase G 2 (PKG2) (Homo sapiens, UniProt Q13237).
T1 sequence (Q13237 1-762): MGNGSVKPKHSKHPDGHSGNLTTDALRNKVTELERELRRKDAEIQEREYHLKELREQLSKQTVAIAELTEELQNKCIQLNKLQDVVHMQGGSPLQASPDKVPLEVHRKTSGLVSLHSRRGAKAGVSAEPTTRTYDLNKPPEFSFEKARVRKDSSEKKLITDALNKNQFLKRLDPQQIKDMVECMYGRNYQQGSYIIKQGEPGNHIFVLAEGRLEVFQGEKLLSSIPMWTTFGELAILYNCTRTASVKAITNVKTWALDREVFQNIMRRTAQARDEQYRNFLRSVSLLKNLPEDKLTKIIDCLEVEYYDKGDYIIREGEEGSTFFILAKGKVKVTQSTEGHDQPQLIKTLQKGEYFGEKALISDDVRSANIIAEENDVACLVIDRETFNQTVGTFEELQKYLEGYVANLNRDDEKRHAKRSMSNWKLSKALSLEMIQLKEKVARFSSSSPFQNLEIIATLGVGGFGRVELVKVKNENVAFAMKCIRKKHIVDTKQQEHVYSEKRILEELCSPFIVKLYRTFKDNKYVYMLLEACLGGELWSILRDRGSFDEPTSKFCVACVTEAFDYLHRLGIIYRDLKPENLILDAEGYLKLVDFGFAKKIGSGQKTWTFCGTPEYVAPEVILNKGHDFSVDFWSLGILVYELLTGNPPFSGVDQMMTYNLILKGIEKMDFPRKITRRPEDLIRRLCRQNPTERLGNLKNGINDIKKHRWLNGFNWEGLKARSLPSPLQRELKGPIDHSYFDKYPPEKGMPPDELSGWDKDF
The experiment in a line: Off-target kinase screen PKG2. The format is biochemical. The following applies: 1 μM test compound. The source says:
(§1) These kinases were chosen because they are the only known off-target hit kinases for eFT508. These assays were done using recombinant human kinases (CLK4, DRAK1 and PKG2) in a substrate phosphorylation assay. % activity remaining after MNK inhibitor treatment is indicated in Table 12.

Series [12] has as its target Cdc2-like kinase 4 (CLK4) (Homo sapiens, UniProt Q9HAZ1). The experiment in a line: Off-target kinase screen CLK4. The format is biochemical. The following applies: 1 μM test compound.
Excerpt: as §1

Series [13] is described as follows: Liver microsome stability, rat. The format is in vitro ADME. The following applies: Rat liver microsomes (#); for microsomal CLint: read-out: CLint rodent; for half-life: read-out: Rodent liver microsomes t1/2.
The target of series [14] is T2, death-associated protein kinase-related apoptosis-inducing protein kinase 1 (DRAK1) (Homo sapiens, UniProt Q9UEE5).
T2 sequence (Q9UEE5 1-414): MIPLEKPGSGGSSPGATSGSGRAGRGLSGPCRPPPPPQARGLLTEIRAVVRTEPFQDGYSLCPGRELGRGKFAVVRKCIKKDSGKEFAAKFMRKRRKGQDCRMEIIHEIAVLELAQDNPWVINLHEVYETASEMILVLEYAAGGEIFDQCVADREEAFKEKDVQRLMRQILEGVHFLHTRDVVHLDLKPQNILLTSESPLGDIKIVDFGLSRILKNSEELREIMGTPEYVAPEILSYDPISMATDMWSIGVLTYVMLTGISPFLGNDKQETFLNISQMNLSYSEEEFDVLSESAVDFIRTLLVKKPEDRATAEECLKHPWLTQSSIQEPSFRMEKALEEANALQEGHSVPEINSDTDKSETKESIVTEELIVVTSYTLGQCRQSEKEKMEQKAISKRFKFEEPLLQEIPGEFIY
In words: Off-target kinase screen DRAK1. The format is biochemical. The following applies: 1 μM test compound.
Excerpt: as §1

Series [15] relates to diffuse large B cell lymphoma (DLBCL) cell lines. The following applies: multiple DLBCL cell lines; cited from earlier work.
Series [16] relates to eIF4E phosphorylation at serine 209 in various tumor cell lines. The following applies: cited from earlier work.

Chain of Cdc2-like kinase 4 (CLK4) (Q9HAZ1 whole entry): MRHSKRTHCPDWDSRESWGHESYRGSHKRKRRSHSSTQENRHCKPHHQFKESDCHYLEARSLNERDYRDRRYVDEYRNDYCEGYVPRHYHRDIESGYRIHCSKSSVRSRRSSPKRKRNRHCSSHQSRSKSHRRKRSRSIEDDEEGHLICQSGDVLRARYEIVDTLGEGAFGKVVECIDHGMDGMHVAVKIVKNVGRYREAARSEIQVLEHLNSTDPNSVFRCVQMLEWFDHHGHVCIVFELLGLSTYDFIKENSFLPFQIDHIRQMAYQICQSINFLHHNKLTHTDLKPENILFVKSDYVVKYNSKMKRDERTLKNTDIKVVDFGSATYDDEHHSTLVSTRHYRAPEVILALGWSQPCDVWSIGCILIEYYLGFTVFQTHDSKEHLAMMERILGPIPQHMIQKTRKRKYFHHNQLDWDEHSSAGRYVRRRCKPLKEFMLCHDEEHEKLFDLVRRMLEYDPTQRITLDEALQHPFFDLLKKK
Chain of MNK1 (Q9BUB5 whole entry): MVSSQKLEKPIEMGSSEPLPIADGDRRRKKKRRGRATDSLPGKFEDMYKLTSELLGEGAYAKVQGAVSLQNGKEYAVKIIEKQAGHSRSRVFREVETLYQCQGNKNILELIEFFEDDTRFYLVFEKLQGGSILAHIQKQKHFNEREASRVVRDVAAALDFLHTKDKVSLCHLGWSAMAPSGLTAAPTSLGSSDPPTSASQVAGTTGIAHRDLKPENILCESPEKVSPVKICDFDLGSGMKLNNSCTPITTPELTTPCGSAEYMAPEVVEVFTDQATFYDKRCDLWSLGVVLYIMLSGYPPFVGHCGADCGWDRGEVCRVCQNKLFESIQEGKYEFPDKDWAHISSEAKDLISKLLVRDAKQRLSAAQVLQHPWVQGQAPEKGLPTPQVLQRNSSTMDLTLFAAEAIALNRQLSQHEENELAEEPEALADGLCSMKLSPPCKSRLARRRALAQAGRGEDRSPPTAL
Chain of MNK2 (Q9HBH9 whole entry): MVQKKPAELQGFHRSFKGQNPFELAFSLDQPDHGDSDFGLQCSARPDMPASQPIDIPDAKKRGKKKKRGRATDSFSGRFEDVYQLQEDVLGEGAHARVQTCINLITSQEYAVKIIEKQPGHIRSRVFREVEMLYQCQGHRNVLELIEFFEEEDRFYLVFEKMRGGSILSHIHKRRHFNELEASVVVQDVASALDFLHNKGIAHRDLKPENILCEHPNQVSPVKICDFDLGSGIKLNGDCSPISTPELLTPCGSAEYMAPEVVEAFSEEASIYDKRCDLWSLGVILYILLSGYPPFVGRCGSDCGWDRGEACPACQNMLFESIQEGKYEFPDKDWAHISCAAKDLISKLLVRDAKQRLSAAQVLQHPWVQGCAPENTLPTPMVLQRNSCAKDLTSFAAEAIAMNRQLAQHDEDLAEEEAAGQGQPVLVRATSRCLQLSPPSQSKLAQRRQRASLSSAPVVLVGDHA

Usually IC50 stands for the concentration at which inhibition is half-maximal. As to `Cc1cc(Nc2cc(NC(=O)C3CC3)ncn2)c(=O)n2c1C(=O)NC21Cc2ccccc2[C@@H]1F` (single isomer, unassigned) [Compound 4ET-03-052B, N-(6-((1′-Fluoro-8-methyl-1,5-dioxo-1,1′,3′,5-tetrahydro-2H-spiro[imidazo[1,5-a]pyridine-3,2′-inden]-6-yl)amino)pyrimidin-4-yl)cyclopropanecarboxamide], the IC50 in series [1] worked out at 19.9 nM; in [4], 1.63 nM; in [5] it was 11.7 nM. The “efficacy in the IL-6 evoked grimace test” value in series [2] (PO 1 hr prior to IL-6, 4ET-01-021 10.0, 3.0 and 1.0 mg/kg, 4ET-03-052B 10.0 mg/kg) is reported as “efficacious”. Moreover, in series [2] (sum of grimace scores at 1 and 3 hr minus baseline), the “effect size in the IL-6 evoked grimace test” value is reported as “statistically-significant effect sizes”. Further, the “Efflux ratio (ratio B-A/A-B)” value in [3] came to 2.8. In addition, in series [3] (Apical to basolateral transport, average of two experiments), the “Papp A-B” value worked out at 22.9 ×10⁻⁶ cm/s. Also, in series [3] (Basolateral to apical transport, average of two experiments), the “Papp B-A” value was 63.3 ×10⁻⁶ cm/s. This compound gave a T1/2 in series [6] (mouse liver microsomes, Table 11b) of 2.88 h.

By Papp A→B is commonly meant the apparent permeability from the apical to the basolateral side of a cell layer. Read a high Papp A→B as fast passage. In general, Papp B→A refers to the apparent permeability from the basolateral to the apical side of a cell layer. `Cc1cc(Nc2cc(NC(=O)C3CC3)ncn2)c(=O)n2c1C(=O)NC21CCC(O)CC1` (centres unmarked) [Compound 4ET-03-015, N-(6-((4-Hydroxy-8′-methyl-1′,5′-dioxo-1′,5′-dihydro-2′H-spiro[cyclohexane-1,3′-imidazo[1,5-a]pyridin]-6′-yl)amino)pyrimidin-4-yl)cyclopropanecarboxamide]: the IC50 in [7] was 3 nM; in series [1], 19.1 nM; in series [4], 1.4 nM; in series [10] it was 2.4 nM; in series [5] (Homo sapiens, HEK293, 2 h), 2.7 nM. The microsomal CLint in series [8] came to 2.73 µL/min/mg; in series [13], 3.18 µL/min/mg. In addition, the half-life in [8] came to 8.45 h; in series [13], 7.27 h. In series [9], the efflux ratio at 5 μM was 10. Moreover, the apparent permeability from apical to basolateral (Papp A→B) at 5 μM in series [9] was found to be 0.9 ×10⁻⁶ cm/s. In series [9], this compound gave a Papp B→A at 5 μM of 8.7 ×10⁻⁶ cm/s. For the same compound, the remaining activity at 1 µM in series [11] amounted to 100%; in series [12], 14%; in series [14] it was 16%.

Regarding `Cc1cc(Nc2cc(N)ncn2)c(=O)n2c1C(=O)NC21CCC(O)CC1` (centres unmarked) [Compound 4ET-01-005, 6′-((6-Aminopyrimidin-4-yl)amino)-4-hydroxy-8′-methyl-2′H-spiro[cyclohexane-1,3′-imidazo[1,5-a]pyridine]-1′,5′-dione], the concentration for half-maximal inhibition (IC50) in series [7] is 26 nM; in series [1], 9.8 nM; in [10] it was 8.2 nM; in series [5] (Homo sapiens, HEK293), 8.2 nM. The microsomal CLint worked out at 3.6 µL/min/mg in [8] and 3.53 µL/min/mg in series [6] (Mouse liver microsomes (*), read-out: CLint rodent). The half-life in series [8] was 6.42 h; in series [6] (Mouse liver microsomes (*), Table 11a, read-out: Rodent liver microsomes t1/2) it was 6.55 h. In series [9], the efflux ratio at 5 μM was 2.7. Besides, the Papp A→B at 5 μM in series [9] is 0.2 ×10⁻⁶ cm/s. In [9], this compound yielded an apparent permeability from basolateral to apical (Papp B→A) at 5 μM of 0.6 ×10⁻⁶ cm/s. Moreover, the values for the remaining activity at 1 µM in series [11], in series [12] and in [14] were 100%, 63% and 41%, respectively.

Regarding `Cc1cc(Nc2cc(N)ncn2)c(=O)n2c1C(=O)NC21CCOCC1` [Compound 4ET-01-002, 6-((6-Aminopyrimidin-4-yl)amino)-8-methyl-2′,3′,5′,6′-tetrahydro-2H-spiro[imidazo[1,5-a]pyridine-3,4′-pyran]-1,5-dione], the IC50 amounted to 33 nM in series [7]; 27.9 nM in [1]; 2.6 nM in series [4]; 6.9 nM in series [10]; 18.5 nM in [5] (Homo sapiens, HEK293, 2 h). In addition, the microsomal CLint in [8] was 2.17 µL/min/mg; in [13], 2.7 µL/min/mg. Also, the half-life in series [8] was found to be 10.7 h; in series [13], 8.57 h. In addition, the efflux ratio at 5 μM in series [9] is 2.2. Besides, the Papp A→B at 5 μM in series [9] stood at 2.6 ×10⁻⁶ cm/s. The Papp B→A at 5 μM in series [9] came to 5.6 ×10⁻⁶ cm/s. In addition, the remaining activity at 1 µM turned out to be 97% in [11], 100% in series [12] and 72% in [14].

In the case of `Cc1cc(Nc2cc(N)ncn2)c(=O)n2c1C(=O)NC21CCCCC1` [eFT508, reference compound], the results for the microsomal CLint in series [8] and in series [13] were 1.88 µL/min/mg and 2.86 µL/min/mg, respectively. In addition, the half-life in [8] worked out at 12.3 h; in [13], 8.07 h; in series [6] (mouse liver microsomes, Table 11b, read-out: T1/2), 8.07 h. This compound also showed a Papp A→B at 5 μM in series [9] of 26.8 ×10⁻⁶ cm/s. The compound also gave a Papp B→A at 5 μM in series [9] of 41.7 ×10⁻⁶ cm/s. The anti-proliferative activity result in series [15] was “anti-proliferative activity”. In addition, the results for the remaining activity at 1 µM in [11], in [12] and in series [14] were 100%, 68% and 24%, respectively. Moreover, the IC50 in [16] was 2 to 16 nM.
